Measured values: patent publication US20250221936A1, “ENGINEERED HEMICHANNELS, ENGINEERED VESICLES, AND USES THEREOF” (VIRGINIA TECH INTELLECTUAL PROPERTIES, INC., priority 2018, published 2025)
Entries after “also recorded” stand apart in the source; their conditions may differ.

Tests used:
[1] = system: Neonatal cardiac fibroblasts (NHFs); assay: Collagen synthesis by neonatal cardiac fibroblasts, Western blotting; format: cell-based, rat
Excerpt: Isolation and treatment of Neonatal Cardiac Fibroblasts with Cx43 based peptides (peptides used included ACT1, JM1, JM2, Antennapedia [ANT], reverse ACT1 [Rev], poly Arginine [poly r]). Said peptides with and without internalization vectors can be loaded into the provided EVs and can elicit results similar to those observed for naked peptide as follows. Neonatal cardiac fibroblasts (NHFs) were isolated from 3-4 day old rat hearts by collagenase digestion (100 U/mL) and differential attachment as previously described (Borg et ah, 1984). All cells were maintained in Dulbecco's Modified Eagle Medium (DMEM) supplemented with 10% Fetal Bovine Serum and 100 U/mL penicillin G and 100 μg/mL streptomycin and used prior to passage four. For experiments, 40,000 NHFs were plated into the wells of a 24-well tissue culture plate and grown for 24-48 hours. On the day of treatment, media was removed from each well and replaced with fresh media containing 50 μg/mL L-ascorbic acid-2-phosphate; Sigma Chemical Co., St. Louis, MO). The appropriate volume of each peptide (resuspended in sterile, deionized 18 MQ resistivity water) was added to achieve the desired final concentration (30, 90, 180 µM peptide concentrations were tested). Culture plates were incubated overnight in a 37° C. incubator with 5% C02.
Protein Isolation and Examination of Collagen Synthesis by Western Blotting. Conditioned culture media was collected from each well and stored at −20° C. for analysis of soluble collagen. Cellular protein, including insoluble collagen and collagen still within the NHFs, were isolated by adding 100-200 μL, of cell lysis buffer (0.01 M Tris, pH 7.4, 0.001 M Sodium Orthovanadate, 1% sodium dodecylsulfate [SDS]) to each well and incubating 10 minutes at room temperature. Prior to addition, cell lysis buffer was warmed to facilitate solubilization of SDS and 100 u L of Halt protease inhibitor (Pierce Biotechnology, Rockford, IL) was added per 10 mL buffer to be used. After incubation, the well bottoms were scraped and liquid transferred to a microcentrifuge tube for storage at −20° C. Protein concentrations of cell lysates were determined using a Micro BCA assay (Pierce). SDS-PAGE samples were prepared by combining either 10 μg of cell lysate or 30 μL of conditioned media with XT loading buffer (BioRad, Hercules, CA), dithiothreitol and boiled for five minutes. Samples were loaded onto 3-8% Tris-Acetate Criterion X T gels (BioRad, Hercules, CA) and proteins separated at 140V. After electrophoresis, proteins were transferred onto […] nitrocellulose membranes (BioRad) overnight at room temperature (Transfer buffer: 25 mM Tris, 192 mM Glycine, 20% Methanol, 0.01% SDS). The presence of collagen was determined by probing the membranes with a rabbit anti-mouse collagen type I antibody (MD Biosciences) at 1:20,000 dilution in blocking buffer (5% milk in Tris-buffered saline) followed by a goat anti-rabbit IgG horseradish peroxidase conjugated antibody at 1:100,000 (Southern Biotech Associates) and detection with Pierce SuperSignal Femto West detection reagent (Pierce). To assess the activity of JM1 and JM2 peptides with respect to collagen production and their potential in mediating wound healing, cardiac fibroblasts were treated with these two peptides and their effectiveness compared to that for the previous described Cx43 peptide ACT1. NHFs were treated with various concentrations of JM1, JM2, ACT1, and ANT (Antennapedia) peptides, vehicle (water) or left untreated and the production of collagen both in the culture media and cell-associated collagen assessed by western blotting. […] To evaluate the impact of the poly-Arginine (poly-r)N-terminal sequence on JM1 and Jm2 activity, NHF cells were treated with a poly-r peptide.

Cx43-HeLa = format: cell-based
Method: The first tests of JM1 and JM2 were performed and the experiments centered on the basic cell biology of the peptides.

Cx43-Hela cells = assay: Cx43 and ZO-1 immunofluorescent labeling; format: cell-based; conditions: 10 μM for 2, 4, 24, or 48 hours
Method: Given that the 10UM concentration of peptide was not toxic to cells, the inventors treated Cx43-Hela cells with 10 μM JM1 or JM2 for 2, 4, 24, or 48 hours followed by fixation and immunofluorescent labeling of Cx43 and ZO-1. Said peptides can be loaded into the provided EVs and can elicit results similar to those observed for naked peptide as follows. […] However, the most striking effects were on ZO-1 organization. In control cells ZO-1 localized to cell borders, often at sites of small, finger-like projections between the cells. Cytoplasmic ZO-1 was also notable. In JM-treated cells a strong contrast in the ratio of cell border to cytoplasmic ZO-1 was found, with relative levels at cell borders being increased over controls. […] There was also a noticeable increase in the number of cells per area of field, supporting the earlier observation that JM2 treated cells appeared to proliferate and survive at an increased rate.

silicon wafer implants = conditions: 24 hours; cited from earlier work
[2] = molecular target: T1, Cx43 CT (amino acids 255 to 382) (Rattus norvegicus, UniProt P08050); assay: Surface plasmon resonance, Cx43 CT analyte; format: binding; conditions: biotin-peptide immobilized on streptavidin chip; analyte 0.5 to 15 μM
T1 construct: Cx43-CT: amino acids 255 to 382; GST (N, cleaved yes); made in house; host or cells: E. coli BL21
T1 sequence (P08050 255-382): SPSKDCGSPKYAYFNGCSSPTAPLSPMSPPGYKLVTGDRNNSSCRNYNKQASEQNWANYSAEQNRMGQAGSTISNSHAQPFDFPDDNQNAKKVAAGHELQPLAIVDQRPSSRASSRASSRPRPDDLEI
Method: (§1) Efficacy of the interaction of each alpha CT1 variant with Cx43 CT or Cx43 CT-KK/QQ was tested using surface plasmon resonance (SPR) as described previously 20. In brief, SPR experiments were performed using a Biacore T200 (GE Healthcare). Equal amounts (response units/RU) of biotin-alpha CT1 variants were immobilized on each flow cell of a streptavidin-coated sensor chip (Biacore Inc) using immobilization buffer (in mM: 10 HEPES, 1 EDTA, 100 NaCl, 0.005% Tween-20) at pH 7.4. Measurements with wild-type (wt) Cx43 CT and mutant Cx43 CT-KK/QQ analytes were done in running buffer (in mM: 10 HEPES, 100 NaCl, pH 7.4) at a flow rate of 30 μl/min. Binding of analytes were verified at different concentrations, in random order (injection volume 120 μl). Interacting proteins were then unbound by injection of […] regeneration buffer (50 mM NaOH and 1 M NaCl) at a flow rate of 10 μl/min. Background levels were obtained from a reference cell containing a biotin-control peptide in which the reversed sequence of the last 9 amino acids of Cx43 was fused to biotin-antennapedia. The RU values obtained with biotin-control peptide were subtracted from the RU values obtained with the different biotin-alphaCT1 variants (wild-type or mutant) to generate the different response curves.

Cx43 CT-KK/QQ = molecular target: T2, Cx43 CT-KK/QQ (Rattus norvegicus, UniProt P08050, K345Q/K346Q); assay: Surface plasmon resonance, Cx43 CT-KK/QQ analyte; format: binding; conditions: biotin-peptide immobilized on streptavidin chip
T2 construct: pGEX-6-P2 Cx43 CT amino acids 255-382; GST (N, cleaved yes); made in house; host or cells: E. coli BL21
T2 sequence (P08050 255-382 K345Q/K346Q): as the sequence (P08050 255-382) above, with K91Q, K92Q counted along it
Excerpt: Peptides were synthesized and quality checked for fidelity and purity using High Performance Liquid Chromatography and mass spectrometry (LifeTein, Hillsborough, NJ). Biotinylated peptides were designed for surface plasmon resonance experiments. Glutathione-S-Transferase (GST) fusion protein constructs composed of the Cx43-CT (pGEX-6-P2 Cx43 CT amino acids 255-382), ZO-1 PDZ1, PDZ2 and PDZ3 were isolated and purified from isopropyl-b-D-thiogalactoside (IPTG)-induced BL21 bacteria using standard procedures, described in references 13, 14, 20. The pGEX6p2-Cx43 CT plasmid was obtained from Prof. Paul L. Sorgen (University of Nebraska Medical Center, USA). Cx43 CT mutant (Cx43 CT-KK/QQ; amino acids Lys345 Lys346 to Gln 345 Gln 346) was developed by site-directed mutagenesis of the pGEX6p2-Cx43 CT plasmid (Agilent technologies, QuikChange II Site-Directed Mutagenesis Kit). The mutation was verified by sequencing. For surface plasmon resonance experiments, the GST was removed using PreScission protease, yielding Cx43 CT protein (wild-type or mutant).
as §1

Cx43 CT = molecular target: T3, Cx43 CT (Rattus norvegicus, UniProt P08050); assay: Protein thermal shift assay, Cx43 CT; format: binding; conditions: 500 μg/ml protein, 25-100 μM peptide
T3 construct: CT: amino acids 255 to 382) alone; GST (N); made in house; host or cells: E. coli BL21
T3 sequence (P08050 255-382): as the sequence (P08050 255-382) above
Method: (§2) Thermal stability of recombinant GST-PDZ2 or Cx43 CT in the presence or absence of peptides was determined in a 96-well format. Each assay well was composed of 500 μg/ml protein, 25-100 μM of each peptide in PBS buffer, pH7.4. All assays were performed independently six times. Samples were generally prepared in 96-well plates at final volumes of 20 μL. The fluorescent dye SYPRO Orange (5000× concentrate in DMSO, ThermoFisher, S6650) was added to a final concentration of 8X. Reactions were run on QuantStudio 6 Flex Real-Time PCR system (Applied Biosystems, part of Life Technologies Corporation, CA) according to the manufacturer's recommendations using a melt protocol in 0.05-degree/see increments from 25° C. to 95° C. The Reporter Dye was “ROX” and quencher Dye and passive reference were selected as “None” for the melt curve according to manufacturer's instructions. The data were analyzed using Protein Thermal Shift™ Software v1.3 package (Applied Biosystems, CA).

ZO-1 PDZ2 = molecular target: T4, ZO-1 PDZ2 (Homo sapiens, UniProt Q07157); assay: Protein thermal shift assay, ZO-1 PDZ2; format: binding; conditions: 500 μg/ml protein, 25-100 μM peptide
T4 construct: the second of the three PDZ (PDZ2) domains of ZO-1; made in house; host or cells: E. coli BL21
T4 sequence (Q07157 186-264 limits assumed): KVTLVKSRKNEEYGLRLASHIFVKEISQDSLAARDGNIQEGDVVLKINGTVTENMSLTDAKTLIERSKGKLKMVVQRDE
Method: as §2

[3] = molecular target: T5, PKC-ε phosphorylation of Cx43-CT substrate at Ser368 (Rattus norvegicus, UniProt P08050); assay: PKC-ε Cx43 CT S368 phosphorylation assay; format: biochemical; conditions: peptides at 20 μM
T5 construct: substrate (Cx43-CT: amino acids 255 to 382); GST (N); made in house; host or cells: E. coli BL21 (Cx43 CT); PKC-ε purchased (Life, 37717L)
T5 sequence (P08050 255-382): as the sequence (P08050 255-382) above
Method: PKC assay conditions were used to evaluate the PKC-ε phosphorylation of Cx43-CT substrate at Ser368 as we have described previously, with modifications 11. 400 ng/ml […] (Life, 37717L, Carlsbad, CA) was pre-diluted in enzyme dilution buffer (10 mM HEPES pH7.4, 0.01% CHAPS and 5 mM DTT) and assayed in 20 mM HEPES pH7.4, 10 mM/L MgCl2, 0.1 mM EGTA, 1× lipid mix (200 μg/ml phosphatidylserine (Avanti Polar Lipids 840032C),^20 μg/ml Diacylglycerol (Avanti Polar Lipids), 1 mM HEPES pH7.4, 0.03% CHAPS), 500 µM ATP (Sigma, A6419) and 14 μg/ml Cx43-CT substrate. Kinase assay buffer was supplemented with peptides to produce final concentrations of the reaction constituents, as indicated in figure legends. The mixture was incubated at 37° C. for 12 minutes and quenched by addition of LDS sample loading buffer (Bio Rad, 1610791). “XT sample buffer” is what was shown on the product label, whereas the component is similar as regular LDS buffer, containing about 5-10% lithium dodecyl sulphate. The reaction was Western blotted for pS368 Cx43 using the Phospho-Connexin43 (Ser368) antibody from Cell Signaling. Proteins were eluted off by stripping buffer (Millipore 2504) and re-probed for total Cx43 using the Sigma anti-rabbit antibody. Percent phosphorylation (% P) was quantified using Equation 1 and normalized with control group (PKC+, no peptide added).

Sequence | mature type I collagen in conditioned media ([1]; 180 μM) | mature type I collagen in conditioned media ([1]; 30, 90, 180 µM) | collagen produced versus poly-r peptide ([1]; about 90 μM) | mature type I collagen in cell lysate ([1]; versus ACT1 peptide) | toxicity (cell death) (Cx43-HeLa) | Cx43 and ZO-1 localization (Cx43-Hela cells) | tissue reaction zone (silicon wafer implants) | SPR binding to Cx43 CT [2] | SPR binding to Cx43 CT-KK/QQ (Cx43 CT-KK/QQ) | Cx43 CT melt temperature (Tm) (Cx43 CT) | PDZ2 melt temperature (Tm) (ZO-1 PDZ2) | Cx43 S368 phosphorylation [3]
VFFKGVKDRV [JM1] | no mature type I collagen was detected | dose-dependent decrease in the production of mature, type I collagen | less than half of that produced by cells treated with the poly-r peptide | more profound reduction in the amount of mature type I collagen | no obvious toxicity | greater cytoplasmic Cx43 was observed; also recorded: ZO-1 cell border labeling was enhanced | substantially narrower tissue reaction zone | – | – | – | – | –
RQPKIWFPNRRKPWKK RPRPAALEI (RQPKIWFPNRRKPWKKRPRPAALEI) [M2 AALEI] | – | – | – | – | – | – | – | abrogated peptide interaction with Cx43 CT; also recorded: limited ability to bind Cx43 CT | unable mediate interactions | no propensity to alter Cx43 CT thermal stability | did not alter the melt temperature of PDZ2 | neither M1 AALAI (SEQ ID NO: 134), M2 AALEI (SEQ ID NO: 135) nor M3 DDLAI (SEQ ID NO: 136) increased Cx43 S368 phosphorylation
